In brackets after ≈: the same amount, converted by molar mass.
Key:
Assay type in all cases: cell-based
Streptococcus D = assay: Minimum inhibition concentration (MIC), Table 4; details: Germ: Streptococcus D; for MIC: Streptococcus, read-out: Minimum inhibition concentration (MIC)
Excerpt: (§1) Minimum inhibition concentration (MIC) in γ/ml

[1] = tested on: Staphylococcus aureus SG 511; assay: Minimum inhibition concentration (MIC), Table 5; details: Staphylococcus aureus, SG511, Germ: Staphylococcus aureus SG 511; read-out: Minimum inhibition concentration (MIC)
Excerpt: as §1
Germ: Staphylococcus aureus SG 511

[2] = tested on: Staphylococcus aureus 285; assay: Minimum inhibition concentration (MIC), Table 1; details: for MIC: Staphylococcus aureus, 285, Germ: Staphylococcus aureus 285, read-out: Minimum inhibition concentration (MIC)
Excerpt: as §1
Germ: Staphylococcus aureus 285

Streptococcus pyogenes A = assay: Minimum inhibition concentration (MIC), Table 3; details: Germ: Streptococcus pyogenes A; read-out: Minimum inhibition concentration MIC
Excerpt: Minimum inhibition concentration MIC in γ/ml
Germ: Streptococcus pyogenes A

Proteus mirabilis = assay: Minimum inhibition concentration (MIC), Table 2; details: Germ: Proteus mirabilis; read-out: Minimum inhibition concentration (MIC)
Excerpt: Minimum inhibition concentration (MIC) in /ml

| Structure (SMILES) | MIC (Streptococcus D) | MIC [1] | MIC [2] | MIC (Streptococcus pyogenes A) | MIC (Proteus mirabilis) | Minimum inhibition concentration (MIC) (Streptococcus D) | Minimum inhibition concentration (MIC) ([2]; Germ: Staphylococcus aureus 285) |
| --- | --- | --- | --- | --- | --- | --- | --- |
| O=C(Cc1ccc(C2=NCCN2)cc1)NC1C(=O)N2C(C(=O)O)=C(CSc3nc(-c4ccccc4)cs3)CSC12 (centres unmarked) [Example 117, 3-[(4-phenyl-thiazole-2-yl)-thiomethyl]-7-[4-(imidazoline-2-yl)-phenylacetamido]-Δ3-cephem-4-carboxylic acid] | 10 to 50 µg/mL (≈ 16.9 to 84.5 µM) | 0.0625 to 0.078 µg/mL (≈ 0.106 to 0.132 µM) | 0.5 to 1.25 µg/mL (≈ 0.845 to 2.11 µM) | 0.000391 to 0.0078 µg/mL (≈ 0.000661 to 0.0132 µM) | – | – | – |
| O=C(COc1ccc(C2=NCCCN2)cc1)NC1C(=O)N2C(C(=O)O)=C(CSc3nncs3)CSC12 (centres unmarked) [Example 62] | 10 to 50 µg/mL (≈ 18.3 to 91.5 µM) | 0.0625 to 0.078 µg/mL (≈ 0.114 to 0.143 µM) | 0.5 to 1.25 µg/mL (≈ 0.915 to 2.29 µM) | 0.008 to 0.0156 µg/mL (≈ 0.0146 to 0.0285 µM) | – | – | – |
| N=C(N)c1ccc(OCC(=O)NC2C(=O)N3C(C(=O)O)=C(CSc4nc(-c5ccccc5)cs4)CSC23)cc1 (centres unmarked) [Example 27, 3-[(4-phenyl-1,3-thiazole-2-yl)-thiomethyl]-7-(4-amidinophenoxy-acetamido)-Δ 3-cephem-4-carboxylic acid] | 10 to 50 µg/mL (≈ 17.2 to 86 µM) | 0.0625 to 0.078 µg/mL (≈ 0.107 to 0.134 µM) | 0.5 to 1.25 µg/mL (≈ 0.86 to 2.15 µM) | 0.000391 to 0.0078 µg/mL (≈ 0.000672 to 0.0134 µM) | – | – | – |
| N=C(N)c1ccc(CC(=O)NC2C(=O)N3C(C(=O)O)=C(CSc4nc[nH]n4)CSC23)cc1 (centres unmarked) [Example 24, 3-[(1,2,4-triazole-3-yl)-thiomethyl]-7-(4-amidino-phenylacetamido)-Δ3-cephem-4-carboxylic acid] | – | – | 0.5 to 1.25 µg/mL (≈ 1.06 to 2.64 µM) | – | 25 µg/mL (≈ 52.8 µM) | – | – |
| N=C(N)c1ccc(CC(=O)NC2C(=O)N3C(C(=O)O)=C(CSc4nnc(-c5ccccc5)o4)CSC23)cc1 (centres unmarked) [Example 56, 3-[(5-phenyl-1,3,4-oxadiazole-2-yl)-thiomethyl]-7-(4-amidinophenylacetamido)-Δ 3-cephem-4-carboxylic acid] | 10 to 50 µg/mL (≈ 18.2 to 90.8 µM) | 0.0196 to 0.0391 µg/mL (≈ 0.0356 to 0.071 µM) | 0.156 to 0.391 µg/mL (≈ 0.283 to 0.71 µM) | 0.000391 to 0.0078 µg/mL (≈ 0.00071 to 0.0142 µM) | – | – | – |
| CC(C)c1csc(SCC2=C(C(=O)O)N3C(=O)C(NC(=O)Cc4ccc(C5=NCCN5)cc4)C3SC2)n1 (centres unmarked) [Example 112, 3-[(4-isopropyl-thiazole-2-yl)-thiomethyl]-7-[4-(imidazoline-2-yl)-phenylacetamido]-Δ3-cephem-4-carboxylic acid] | 0.196 to 6.25 µg/mL (≈ 0.351 to 11.2 µM) | 0.0625 to 0.078 µg/mL (≈ 0.112 to 0.14 µM) | 0.156 to 0.391 µg/mL (≈ 0.28 to 0.701 µM) | 0.000391 to 0.0078 µg/mL (≈ 0.000701 to 0.014 µM) | – | – | – |
| O=C(Cc1ccc(C2=NCCCN2)cc1)NC1C(=O)N2C(C(=O)O)=C(CSc3nc4ccccc4o3)CSC12 (centres unmarked) [Example 109, 3-[(benzoxazole-2-yl)-thiomethyl]-7-[4-(1,4,5,6-tetrahydropyrimide-2-yl)-phenylacetamido]-Δ3-cephem-4-carboxylic acid] | 10 to 50 µg/mL (≈ 17.7 to 88.7 µM) | 0.0625 to 0.078 µg/mL (≈ 0.111 to 0.138 µM) | 0.156 to 0.391 µg/mL (≈ 0.277 to 0.694 µM) | 0.000391 to 0.0078 µg/mL (≈ 0.000694 to 0.0138 µM) | – | – | – |
| Cc1nsc(SCC2=C(C(=O)O)N3C(=O)C(NC(=O)Cc4ccc(C5=NCCCN5)cc4)C3SC2)n1 (centres unmarked) [Example 108, 3-[(3-methyl-1,2,4-thiadiazole-5-yl)-thiomethyl]-7-[4-(1,4,5,6-tetrahydropyrimide-22-yl)-phenylacetamido]-Δ3-cephem-4-carboxylic acid] | 10 to 50 µg/mL (≈ 18.4 to 91.8 µM) | 0.0625 to 0.078 µg/mL (≈ 0.115 to 0.143 µM) | 0.156 to 0.391 µg/mL (≈ 0.286 to 0.718 µM) | 0.000391 to 0.0078 µg/mL (≈ 0.000718 to 0.0143 µM) | – | – | – |
| Nn1cnnc1SCC1=C(C(=O)O)N2C(=O)C(NC(=O)Cc3ccc(C4=NCCCN4)cc3)C2SC1 (centres unmarked) [Example 100, 3-[(4-amino-4H-1,2,4-triazole-3-yl)-thiomethyl]-7-[4-(1,4,5,6-tetrahydropyrimide-2-yl)-phenylacetamido]-Δ3-cephem-4-carboxylic acid] | – | – | – | 0.008 to 0.0156 µg/mL (≈ 0.0151 to 0.0295 µM) | 3.1 to 12.5 µg/mL (≈ 5.86 to 23.6 µM) | – | – |
| N=C(N)c1ccc(CC(=O)NC2C(=O)N3C(C(=O)O)=C(CSc4nnc(-c5ccccc5)s4)CSC23)cc1 (centres unmarked) [Example 57, 3-[(5-phenyl-1,3,4-thiadiazole-2-yl)-thiomethyl]-7-(4-amidinophenylacetamido)-Δ3-cephem-4-carboxylic acid] | 10 to 50 µg/mL (≈ 17.6 to 88.2 µM) | 0.0196 to 0.0391 µg/mL (≈ 0.0346 to 0.069 µM) | 0.156 to 0.391 µg/mL (≈ 0.275 to 0.69 µM) | 0.000391 to 0.0078 µg/mL (≈ 0.00069 to 0.0138 µM) | – | – | – |
| N=C(N)c1ccc(OCC(=O)NC2C(=O)N3C(C(=O)O)=C(CSc4nnc(-c5ccccc5)o4)CSC23)cc1 (centres unmarked) [Example 28, 3-[(5-5-phenyl-1,3,4-oxadiazole-2-yl)-thiomethyl]-7-(4-amidino-phenoxyacetamido)-Δ 3-cephem-4-carboxylic acid] | – | 0.0196 to 0.0391 µg/mL (≈ 0.0346 to 0.069 µM) | – | 0.000391 to 0.0078 µg/mL (≈ 0.00069 to 0.0138 µM) | – | 10 to 50 µg/mL | 0.156 to 0.391 µg/mL |
| N=C(N)c1ccc(CC(=O)NC2C(=O)N3C(C(=O)O)=C(CSc4nc5ccccc5s4)CSC23)cc1 (centres unmarked) [Example 92, 3-[benzothiazole-2-yl-thiomethyl]-7-[4-amidino-phenylacetamido]-Δ 3-cephem-4-carboxylic acid] | 0.196 to 6.25 µg/mL (≈ 0.363 to 11.6 µM) | 0.0625 to 0.078 µg/mL (≈ 0.116 to 0.145 µM) | 0.156 to 0.391 µg/mL (≈ 0.289 to 0.725 µM) | 0.000391 to 0.0078 µg/mL (≈ 0.000725 to 0.0145 µM) | – | – | – |

Reference: patent US4016159A, “Acylamino-cephem-carboxylic acids containing an amidino or guanidino group in the molecule” (Hoechst Aktiengesellschaft, priority 1973, dated 1977)
